Like-named read-outs stand apart in the source and are kept apart here.
Assays:
MC1R (B16-F1 cells) = target: T1, MC1R (B16-F1 cells) (Mus musculus, UniProt Q01727); assay: Competition binding assay with [^125I]-NDP-MSH, mouse B16-F1 melanoma cells; conditions: B16-F1 cells, [^125I]-NDP-MSH competition, 15°C, 3 h; n = 3–20; ± SEM; ^c = P < 0.05 vs. DOTA-NAP-amide; read-out: Receptor-binding potency IC50
T1 construct: endogenous in cells; host or cells: mouse B16-F1 melanoma cells
Procedure: (§1) Triplicates of 100-µL volumes of B16-F1 or HBL cell suspensions adjusted to 4 × 10^6/mL were incubated in 96-well U-bottom microplates (Falcon 3077). The binding medium consisted of MEM with Earle’s salts, 0.2% BSA, and 0.3 mM 1,10-phenanthroline. This binding medium was called mouse binding medium (MBM). Triplicates of competitor peptide solution (50 µL) yielding final concentrations ranging from 1 × 10^−6 to 1 × 10^−12 M were added. [^125I]NDP-MSH (50,000 cpm) in 50 µL was finally added to each well. The plates were incubated at 15°C for 3 h for B16-F1 cells and at 37°C for 2 h for HBL cells. The incubation was stopped by covering the plates with ice for 10 min. A cell harvester was used to collect cell-bound radioactivity on filters (Packard Unifilter-96 GF/B). The collected radioactivity was counted on a TopCount scintillation counter (Packard) after addition of 50 µL Microscint-20 scintillation cocktail (Perkin Elmer). The IC50 values were calculated with the Prism 6 software (GraphPad Software Inc., San Diego CA, USA).
(§2) The binding affinity of the peptides to MC1R was assessed by competition binding assays using [^125I]-NDP-MSH as radioligand and both murine B16-F1 and human HBL cells.

[1] = Biodistribution of ^111In-labeled peptides in B16-F1 melanoma-bearing mice; format: in vivo, mouse (B6D2F1); conditions: female, iv, total radioactivity, ^111In-labeled peptide, 185 kBq i.v., mean ± SEM of three experiments, n = 5 animals each
Procedure: About 5 × 10^5 B16-F1 cells were implanted subcutaneously to female B6D2F1 mice (C57BL/6 × DBA/2F1 hybrids; breeding pairs obtained from IFFA-CREDO, France). Seven days later, 185 kBq of ^111In-labeled ligand in 200 µL PBS/0.1% BSA were injected intravenously into the lateral tail vein of each mouse. Control mice were injected with a mixture of the tracer and 50 µg α-MSH to determine the non-specific uptake of radioligand. The animals were sacrificed 4, 24, and 48 h postinjection, dissected, and the tissues of interest collected, rinsed of excess blood, and weighed. The radioactivity emitted by each organ was measured in a γ-counter to determine the tissue uptake as percentage of the injected dose (ID) per gram of tissue. The total of injected radioactivity per animal was determined by extrapolation from the counts of a standard collected from the injection solution for each animal. Urine samples were collected at 10, 15, and 20 min and 4 h after injection and kept frozen at −80°C until use. Urine (1 vol) was mixed with methanol (2 vol) to precipitate proteins, and the supernatant was analyzed by RP-HPLC/γ-detection, as described in Ref. ([12]).
Results are expressed as means ± SEM, unless otherwise stated. The statistical evaluation of data was performed using the one- or two-way ANOVA test. When significant overall effects were obtained by ANOVA, multiple comparisons were made with the Bonferroni correction. P < 0.05 was considered statistically significant. The area under the curve (AUC) was calculated with the GraphPad Prism 6 software for the indicated period of time, using the mean tissue uptake value at each time point.

MC1R (HBL cells) = target: T2, MC1R (HBL cells) (Homo sapiens, UniProt Q01726); assay: Competition binding assay with [^125I]-NDP-MSH, human HBL melanoma cells; conditions: HBL cells, [^125I]-NDP-MSH competition, 37°C, 2 h; n = 3–20; ± SEM; ^c = P < 0.05 vs. DOTA-NAP-amide; read-out: Receptor-binding potency IC50
T2 construct: endogenous in cells; host or cells: human HBL melanoma cell line
Procedure: as §1, §2

[2] = in vivo; cited from earlier work
[3] = B6D2F1 (C57BL/6 × DBA/2F1 hybrids), mouse, blood, read-out: Blood uptake
[4] = B6D2F1 (C57BL/6 × DBA/2F1 hybrids), mouse, muscle, read-out: Muscle uptake
[5] = B6D2F1 (C57BL/6 × DBA/2F1 hybrids), mouse, tumor, read-out: Tumor uptake
[6] = B6D2F1, mouse, bone, read-out: Bone uptake
[7] = B6D2F1, mouse, heart, read-out: Heart uptake
[8] = B6D2F1, mouse, kidney, read-out: Kidney uptake
[9] = B6D2F1, mouse, liver, read-out: Liver uptake
[10] = B6D2F1, mouse, lung, read-out: Lung uptake
[11] = B6D2F1, mouse, pancreas, read-out: Pancreas uptake
[12] = B6D2F1, mouse, small intestines, read-out: Small intestines uptake
[13] = B6D2F1, mouse, spleen, read-out: Spleen uptake
[14] = B6D2F1, mouse, stomach, read-out: Stomach uptake

T2 sequence (Q01726 whole entry): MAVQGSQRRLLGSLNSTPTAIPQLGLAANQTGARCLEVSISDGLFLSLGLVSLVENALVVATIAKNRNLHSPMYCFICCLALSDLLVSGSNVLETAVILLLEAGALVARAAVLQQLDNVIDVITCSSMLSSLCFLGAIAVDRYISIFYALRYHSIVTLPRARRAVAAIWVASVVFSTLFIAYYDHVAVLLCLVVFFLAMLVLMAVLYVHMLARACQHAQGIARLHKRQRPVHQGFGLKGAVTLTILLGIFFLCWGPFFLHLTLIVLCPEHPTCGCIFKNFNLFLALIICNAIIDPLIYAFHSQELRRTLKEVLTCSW
T1 sequence (Q01727 whole entry): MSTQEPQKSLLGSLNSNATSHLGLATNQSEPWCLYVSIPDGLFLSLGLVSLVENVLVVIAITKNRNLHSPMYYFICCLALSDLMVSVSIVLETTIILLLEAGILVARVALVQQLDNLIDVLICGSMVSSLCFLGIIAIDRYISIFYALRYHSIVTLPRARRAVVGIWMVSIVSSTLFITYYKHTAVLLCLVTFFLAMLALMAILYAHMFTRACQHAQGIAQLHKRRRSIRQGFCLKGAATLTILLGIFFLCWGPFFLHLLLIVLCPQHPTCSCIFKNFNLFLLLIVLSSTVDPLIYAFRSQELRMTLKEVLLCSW

Molecule `CCCC[C@H](NC(C)=O)C(=O)N[C@@H](CC(=O)O)C(=O)N[C@@H](Cc1c[nH]cn1)C(=O)N[C@H](Cc1ccccc1)C(=O)N[C@@H](CCCNC(=N)N)C(=O)N[C@@H](Cc1c[nH]c2ccccc12)C(=O)NCC(=O)N[C@@H](CCCCNC(=O)CN1CCN(CC(=O)O)CCN(CC(=O)O)CCN(CC(=O)O)CC1)C(N)=O` [DOTA-NAP-amide, [Ac-Nle^4,Asp^5,D-Phe^7,Lys^11(DOTA)]-α-MSH4-11, reference compound] has an IC50 (MC1R (B16-F1 cells)) of 1.38 ± 0.35 nM, a tissue uptake at 4 h [1, 3] of 0.09 ± 0.02 %ID/g and a tissue uptake at 24 h [1, 3] of 0.02 %ID/g. The tissue uptake at 48 h ([1]; B6D2F1 (C57BL/6 × DBA/2F1 hybrids), mouse, bone, read-out: Bone uptake) was 0.05 ± 0.01 %ID/g, the tissue uptake at 4 h [1, 4] was 0.05 ± 0.01 %ID/g and the tissue uptake at 24 h [1, 4] was 0.02 %ID/g. For the same molecule, the tissue uptake at 48 h [1, 4] was 0.01 %ID/g, the tissue uptake at 24 h [1, 5] was 2.32 ± 0.15 %ID/g and the tissue uptake at 48 h [1, 5] was 1.41 ± 0.12 %ID/g. The tissue uptake at 4 h [1, 6] was 0.11 ± 0.02 %ID/g, the tissue uptake at 24 h [1, 6] was 0.14 ± 0.02 %ID/g and the tissue uptake at 4 h [1, 7] was 0.05 ± 0.01 %ID/g. For the same molecule, the tissue uptake at 24 h [1, 7] was 0.03 %ID/g, the tissue uptake at 48 h [1, 7] was 0.01 %ID/g and the tissue uptake at 24 h [1, 8] was 2.41 ± 0.2 %ID/g. It also gave a tissue uptake at 48 h [1, 8] of 1.55 ± 0.07 %ID/g, a tissue uptake at 4 h [1, 9] of 0.34 ± 0.05 %ID/g and a tissue uptake at 24 h [1, 9] of 0.31 ± 0.02 %ID/g. The tissue uptake at 48 h [1, 9] was 0.27 ± 0.07 %ID/g, the tissue uptake at 4 h [1, 10] was 0.08 ± 0.01 %ID/g and the tissue uptake at 24 h [1, 10] was 0.05 ± 0.01 %ID/g. The tissue uptake at 48 h [1, 10] was 0.03 %ID/g, the tissue uptake at 4 h [1, 11] was 0.04 %ID/g and the tissue uptake at 24 h [1, 11] was 0.03 %ID/g. It also gave a tissue uptake at 48 h [1, 11] of 0.02 %ID/g, a tissue uptake at 4 h [1, 12] of 0.07 ± 0.01 %ID/g and a tissue uptake at 24 h [1, 12] of 0.08 ± 0.01 %ID/g. It also gave a tissue uptake at 48 h [1, 12] of 0.05 ± 0.01 %ID/g, a tissue uptake at 4 h [1, 13] of 0.14 ± 0.01 %ID/g and a tissue uptake at 24 h [1, 13] of 0.11 ± 0.01 %ID/g. It also gave a tissue uptake at 48 h [1, 13] of 0.1 ± 0.01 %ID/g, a tissue uptake at 4 h [1, 14] of 0.09 ± 0.01 %ID/g and a tissue uptake at 24 h [1, 14] of 0.12 ± 0.02 %ID/g. For the same molecule, the tissue uptake at 48 h [1, 14] was 0.11 ± 0.05 %ID/g, the IC50 (MC1R (HBL cells)) was 3.09 ± 1.11 nM and the “Tumor and non-tumor tissue uptake (in words)” value [2] was “highest tumor uptake paired with minimal non-tumor tissue uptake, except for the kidneys”.
